The assay deals with Leukotriene D4 (ileum contraction induced by LTD4). Description: Guinea Pig Ileum Assay for Evaluation of Antagonists of Leukotriene D4 (Inhibition of Ileum Contraction Induced by LTD4). Format: cell-based, guinea pig (male Hartley strain). The following applies: Cavia porcellus, LTD4 0.3 ng/ml, 30 second pretreatment; for inhibition at 10 µg/mL: 10 μg/ml. How it is done: The terminal ileum from male Hartley strain guinea pigs (300-500 g) was removed and suspended under 1 g resting tension in Tyrode's solution containing 1.0×10^-6 M atropine sulfate and 1.6×10^-6 M timolol (beta blocker). After a 15-30 minute stabilization period, a standard dose of leukotriene D4 (0.3 ng/ml--final bath concentration)was added repeatedly until consistent and reproducible contractile responses were obtained. Isometric contractions to leukotriene D4 were recorded for 60 seconds and then the tissue was washed and allowed to recove to baseline (2 minutes) before the next dose of leukotriene D4 was added. For testing antagonist compounds, a 30 second pretreatment period was used and the percent inhibition of the control contraction to leukotriene D4 was recorded. A similar procedure was employed for testing active compounds against contractions to a standard dose of histamine (50 ng/ml--final bath concentration).

For the molecule `CCCc1c(OCC2(O)CCCCC2Sc2ccc(C(=O)CCC(=O)O)cc2)ccc(C(C)=O)c1O` [L-649,106], the inhibition (usually the percentage by which the read-out fell short of the control) at 10 µg/mL worked out at 80%. Further, for the setting “1 μg/ml”, the inhibition at 1 µg/mL was found to be 23%.
Turning to `CCCc1c(OCC2(Sc3ccc(C(=O)CCC(=O)O)cc3)CCCCC2O)ccc(C(C)=O)c1O` [L-649,107], the inhibition at 10 µg/mL is 12%.

The values are drawn from patent US4871756A, “Leukotriene antagonists” (Merck Frosst Canada, Inc., priority 1987, dated 1989).
